Experimental data published in patent US20250136552A1, “ANTAGONISTS OF CAV 2.3” (LARIO THERAPEUTICS LIMITED, priority 2021, published 2025).

Biological target: Cav2.3 (Homo sapiens, UniProt Q15878)
Test: Human Cav2.3 channel calcium-influx assay
Type: cell-based
Conditions: HEK-293 T-Rex/Kir2.1 cells with inducible Cav2.3e-β4-α2δ1; Fluo8 fluorescence; 8-point dose response from 30 μM; no pluronic acid; read-out: Cav2.3 (pIC50) (converted)
Procedure: HEK-293 T-Rex cells were transfected with pcDNA3.1-Kir2.1 to generate a stable cell line. After antibiotic selection, the obtained stable pools were analysed using FLIPR^TETRA(membrane potential assay), and a limiting dilution was performed and a HEK-293 T-Rex/Kir2.1 clone was selected. The clone was transfected with pcDNA3.1-Cav2.3e and pBud-Cav-β4-α2δ1 to generate a stable cell line where the Cav2.3e expression is inducible. After antibiotic selection, functional clone pool analysis and two successive limiting dilutions, the final clone underwent a qPCR analysis and a biophysical and pharmacological validation using patch-clamp.
A compound plate, containing 10 test compounds in eight-points dose response with n=4, was prepared. Test compounds dose response curves were prepared in automated fashion in 100% DMSO at CyBio Felix and starting from a stock solution in 100% DMSO; a defined volume was serially moved into destination wells pre-filled with the desired DMSO volume; stock solution concentration volumes were dependent on the final compounds concentrations to be tested and the final DMSO content used in the assay. For the assay test compounds dose response curves ranged from 30 μM and half log dilution with 0.3% final DMSO. In order to obtain the 8-points dose response curve all the concentrations were created by starting from a 10 mM DMSO stock solution and then moving 9.5 μL into a destination well pre-filled with 20.5 μL of 100% DMSO and repeating this step seven times. This initial step was done into 96 MTP plates, 10 compounds/plate. One 384 MTP was then reformatted to contain all the 10 compounds at 8 concentrations, quadruplicate data points. This so obtained 384 MTP compound plate served as source plate in a “mother to child” process with a CyBi®-Well dispenser in which 0.7 μL of compounds were moved into a destination plate pre-filled with 57.6 μL of Tyrode's buffer 0 mM K^+, thus obtaining 4× concentrated compounds solution. In columns 1-2 and 23-24 the control wells were added. Both “source” compound plate and “destination” compound plate were barcoded and a relationship between the two plates was thus generated.
The day before the experiment, cells were detached by gentle wash with DPBS, followed by 5 min incubation at 37° C. with Trypsin solution. Detached cells were diluted with OptiMEM+Doxycycline at 0.2 μg/mL, counted and plated in Poly-D-Lysine coated black/clear bottom (15.000 c/well in 20 μl/well) by the use of a MATRIX WellMate dispenser. Plates were placed into a humidified incubator at 37° C. with 5% CO2 until the experimental day. 24 h after seeding 10 μL/well of 1.5× Fluo8 NW dye solution prepared in Tyrode's buffer 0 mM K^+ were added on top of the seeding medium. Cell plates were incubated for 40-60 min at RT in the dark. We then Injected off-line 10 μL/well of test compounds and controls 4× concentrated in Tyrode's Buffer 0 mM K+ with the CyBi®-Well instrument. Cell plates were incubated 3 minutes at RT. Finally, we injected 20 μL/well of 3× concentrated activator solution (K20-Na130-Ca2 buffer: 20 mM KCl, 130 mM NaCl, 2 mM CaCl2, 10 mM HEPES, 10 mM Glucose, final concentrations, prepared starting from “K0-Na150-Ca2” and “K150-Na0-Ca2” buffers) at FDSS7000EX instrument and read emitted fluorescence for 130 seconds.
Data analysis was performed with Genedata Screener® software and reported compounds activity as % effect in relation to the normalization standards. The Kinetic Response Value (KRV) is calculated as follows:
KRV=Maximal fluorescence recorded from second 5 to second 130 minus baseline fluorescence, computed as average from second 1 to second 2, of the kinetic trace. The KRV was normalized versus Neutral Controls and Inhibitor Controls in order to obtain the Activity[%] for each well. […] Therefore, the compound activity values were scaled (based on the two references) to a common range (two-point normalization). […]

Cav2.3, sequence (Q15878 1-2270 isoform Q15878-3): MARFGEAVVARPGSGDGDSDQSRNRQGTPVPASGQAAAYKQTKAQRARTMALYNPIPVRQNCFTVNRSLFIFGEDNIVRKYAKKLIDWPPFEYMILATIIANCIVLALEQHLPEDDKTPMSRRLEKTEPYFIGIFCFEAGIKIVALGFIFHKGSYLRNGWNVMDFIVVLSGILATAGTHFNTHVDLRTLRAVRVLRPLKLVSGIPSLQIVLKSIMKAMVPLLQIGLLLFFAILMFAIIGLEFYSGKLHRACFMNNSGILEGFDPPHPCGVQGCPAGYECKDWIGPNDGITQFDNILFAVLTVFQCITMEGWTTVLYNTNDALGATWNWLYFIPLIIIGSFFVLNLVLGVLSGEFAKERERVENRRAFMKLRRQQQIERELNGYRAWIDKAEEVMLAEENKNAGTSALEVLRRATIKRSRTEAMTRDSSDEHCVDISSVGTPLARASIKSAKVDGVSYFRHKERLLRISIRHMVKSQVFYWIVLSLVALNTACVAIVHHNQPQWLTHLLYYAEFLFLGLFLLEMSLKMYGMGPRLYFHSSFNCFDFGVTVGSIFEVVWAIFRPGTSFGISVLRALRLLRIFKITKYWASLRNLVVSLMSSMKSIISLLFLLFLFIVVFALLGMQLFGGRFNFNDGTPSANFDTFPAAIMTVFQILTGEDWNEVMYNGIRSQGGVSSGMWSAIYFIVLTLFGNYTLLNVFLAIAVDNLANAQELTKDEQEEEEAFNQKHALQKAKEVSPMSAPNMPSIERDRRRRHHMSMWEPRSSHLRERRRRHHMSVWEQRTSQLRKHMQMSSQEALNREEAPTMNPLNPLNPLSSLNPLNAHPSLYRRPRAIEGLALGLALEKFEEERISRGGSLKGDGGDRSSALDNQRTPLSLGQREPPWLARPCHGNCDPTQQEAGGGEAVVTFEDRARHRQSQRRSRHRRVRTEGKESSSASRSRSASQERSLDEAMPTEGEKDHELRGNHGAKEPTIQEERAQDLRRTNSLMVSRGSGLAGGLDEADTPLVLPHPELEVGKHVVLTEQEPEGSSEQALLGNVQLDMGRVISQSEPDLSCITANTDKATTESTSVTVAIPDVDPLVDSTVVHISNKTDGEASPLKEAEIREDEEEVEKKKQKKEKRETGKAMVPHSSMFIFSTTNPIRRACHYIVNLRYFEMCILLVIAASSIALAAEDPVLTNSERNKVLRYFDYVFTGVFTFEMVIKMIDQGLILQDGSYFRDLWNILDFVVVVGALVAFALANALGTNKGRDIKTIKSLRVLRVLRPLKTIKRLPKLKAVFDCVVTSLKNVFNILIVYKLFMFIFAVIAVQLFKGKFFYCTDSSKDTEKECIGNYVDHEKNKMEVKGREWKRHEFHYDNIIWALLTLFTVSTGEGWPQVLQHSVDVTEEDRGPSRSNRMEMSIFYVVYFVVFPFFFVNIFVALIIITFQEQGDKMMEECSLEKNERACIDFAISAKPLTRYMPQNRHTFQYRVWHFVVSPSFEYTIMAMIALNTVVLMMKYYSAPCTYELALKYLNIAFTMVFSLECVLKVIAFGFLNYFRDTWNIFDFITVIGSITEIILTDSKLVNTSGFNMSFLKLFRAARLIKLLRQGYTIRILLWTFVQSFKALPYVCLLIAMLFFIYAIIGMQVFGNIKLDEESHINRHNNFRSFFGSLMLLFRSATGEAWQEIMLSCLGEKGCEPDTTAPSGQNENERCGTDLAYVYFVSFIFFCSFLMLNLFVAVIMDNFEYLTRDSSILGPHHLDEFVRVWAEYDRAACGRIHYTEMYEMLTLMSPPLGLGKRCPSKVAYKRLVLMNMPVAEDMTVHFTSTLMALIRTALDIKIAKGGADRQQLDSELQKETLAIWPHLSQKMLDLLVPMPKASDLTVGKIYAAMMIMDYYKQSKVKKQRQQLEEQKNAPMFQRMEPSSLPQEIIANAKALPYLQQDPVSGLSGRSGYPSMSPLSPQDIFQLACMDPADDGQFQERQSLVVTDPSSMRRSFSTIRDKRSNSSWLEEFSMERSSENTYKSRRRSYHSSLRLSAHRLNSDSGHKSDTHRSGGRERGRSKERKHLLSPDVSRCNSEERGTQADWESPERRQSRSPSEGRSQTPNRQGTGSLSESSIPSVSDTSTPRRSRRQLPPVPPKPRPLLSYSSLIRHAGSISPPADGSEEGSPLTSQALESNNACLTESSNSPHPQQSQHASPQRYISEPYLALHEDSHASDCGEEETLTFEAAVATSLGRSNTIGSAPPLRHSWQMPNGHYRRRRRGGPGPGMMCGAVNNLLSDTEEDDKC

Row | SMILES | IC50
1 | CC(C)C(=O)N1CCc2ccc(S(=O)(=O)NCC(C)c3ccc(F)cc3)cc2C1 (single isomer, unassigned) [Example 17, N-(2-(4-fluorophenyl)propyl)-2-isobutyryl-1,2,3,4-tetrahydroisoquinoline-7-sulfonamide] | 6170 nM
2 | CCN([C@@H](c1ccc(F)cc1)C(F)(F)F)S(=O)(=O)c1ccc2c(c1)CN(C(=O)C(C)C)CC2 (stereo in doubt) [Example 7, N-ethyl-2-isobutyryl-N-(2,2,2-trifluoro-1-(4-fluorophenyl)ethyl)-1,2,3,4-tetrahydroisoquinoline-7-sulfonamide] | 2000 nM
3 | C[C@@H](c1ccccc1)N(C)S(=O)(=O)c1ccc2c(c1)CN(C(=O)C(F)(F)F)CC2 [Example 2, (S)-N-methyl-N-(1-phenylethyl)-2-(2,2,2-trifluoroacetyl)-1,2,3,4-tetrahydroisoquinoline-7-sulfonamide] | 2040 nM
4 | C[C@@H](c1ccccc1)N(C)S(=O)(=O)c1ccc2c(c1)CN(c1ccncc1)CC2 [Example 3, (S)-N-methyl-N-(1-phenylethyl)-2-(pyridin-4-yl)-1,2,3,4-tetrahydroisoquinoline-7-sulfonamide] | 2090 nM
5 | C[C@@H](c1ccccc1)N(C)S(=O)(=O)c1ccc2c(c1)CN(C(=O)c1ccccc1)CC2 [Example 4, (S)-2-benzoyl-N-methyl-N-(1-phenylethyl)-1,2,3,4-tetrahydroisoquinoline-7-sulfonamide] | 2000 nM
6 | CCN(C(c1ccc(F)cc1)C(F)(F)F)S(=O)(=O)c1ccc2c(c1)CN(C(=O)C(C)C)CC2 (stereo not shown) [Example 5, N-ethyl-2-isobutyryl-N-(2,2,2-trifluoro-1-(4-fluorophenyl)ethyl)-1,2,3,4-tetrahydroisoquinoline-7-sulfonamide] | 437 nM
7 | CC(C)C(=O)N1CCc2ccc(S(=O)(=O)N(C)C(c3ccc(F)cc3)C(F)(F)F)cc2C1 (stereo not shown) [Example 8, 2-isobutyryl-N-methyl-N-(2,2,2-trifluoro-1-(4-fluorophenyl)ethyl)-1,2,3,4-tetrahydroisoquinoline-7-sulfonamide] | 1070 nM
8 | CC(C)C(=O)N1CCc2ccc(S(=O)(=O)N(C)[C@@H](c3ccc(F)cc3)C(F)(F)F)cc2C1 [Example 10, (S)-2-isobutyryl-N-methyl-N-(2,2,2-trifluoro-1-(4-fluorophenyl)ethyl)-1,2,3,4-tetrahydroisoquinoline-7-sulfonamide] | 3720 nM
9 | CC(C)C(=O)N1CCc2ccc(S(=O)(=O)N(C)[C@@H](C)c3ccc(F)cc3)cc2C1 [Example 11, (S)-N-(1-(4-fluorophenyl)ethyl)-2-isobutyryl-N-methyl-1,2,3,4-tetrahydroisoquinoline-7-sulfonamide] | 851 nM
10 | CCN([C@@H](C)c1ccc(F)cc1)S(=O)(=O)c1ccc2c(c1)CN(C(=O)C1CC1)CC2 [Example 13, (S)-2-(cyclopropanecarbonyl)-N-ethyl-N-(1-(4-fluorophenyl)ethyl)-1,2,3,4-tetrahydroisoquinoline-7-sulfonamide] | 912 nM
11 | CC(C)C(=O)N1CCc2ccc(S(=O)(=O)N(C)[C@@H](C)c3ccccc3)cc2C1 [Example 15, (S)-2-isobutyryl-N-methyl-N-(1-phenylethyl)-1,2,3,4-tetrahydroisoquinoline-7-sulfonamide] | 891 nM
12 | C[C@@H](c1ccccc1)N(C)S(=O)(=O)c1ccc2c(c1)CN(C(=O)C1CC1)CC2 [Example 16, (S)-2-(cyclopropanecarbonyl)-N-methyl-N-(1-phenylethyl)-1,2,3,4-tetrahydroisoquinoline-7-sulfonamide] | 1020 nM

Next, values leading:

Row | IC50 | SMILES
13 | 1100 nM | CCN(C(c1ccc(F)cc1)C(F)(F)F)S(=O)(=O)c1ccc2c(c1)CN(C(=O)C(C)(C)F)CC2 (stereo not shown) [Example 18, N-ethyl-2-(2-fluoro-2-methylpropanoyl)-N-(2,2,2-trifluoro-1-(4-fluorophenyl)ethyl)-1,2,3,4-tetrahydroisoquinoline-7-sulfonamide]
14 | 575 nM | CCN([C@@H](C)c1ccc(F)cc1)S(=O)(=O)c1ccc2c(c1)CN(C(=O)C(C)(C)F)CC2 [Example 19, (S)-N-ethyl-2-(2-fluoro-2-methylpropanoyl)-N-(1-(4-fluorophenyl)ethyl)-1,2,3,4-tetrahydroisoquinoline-7-sulfonamide]
15 | 3980 nM | CCN([C@@H](C)c1ccc(C(F)(F)F)cc1)S(=O)(=O)c1ccc2c(c1)CCN(C(=O)C1CC1)C2 [Example 21, (S)-2-(cyclopropanecarbonyl)-N-ethyl-N-(1-(4-(trifluoromethyl)phenyl)ethyl)-1,2,3,4-tetrahydroisoquinoline-6-sulfonamide]
16 | 955 nM | CCN([C@@H](C)c1ccc(F)cc1)S(=O)(=O)c1cc(F)c2c(c1)CCN(C(=O)C1CC1)C2 [Example 22, (S)-2-(cyclopropanecarbonyl)-N-ethyl-8-fluoro-N-(1-(4-fluorophenyl)ethyl)-1,2,3,4-tetrahydroisoquinoline-6-sulfonamide]
17 | 2140 nM | CCN([C@@H](C)c1ccc(F)cc1)S(=O)(=O)c1ccc2c(c1)C(C)(C)CN(C(=O)C1CC1)C2 [Example 23, (S)-2-(cyclopropanecarbonyl)-N-ethyl-N-(1-(4-fluorophenyl)ethyl)-4,4-dimethyl-1,2,3,4-tetrahydroisoquinoline-6-sulfonamide]
18 | 1740 nM | CCN([C@@H](C)c1ccc(F)cc1)S(=O)(=O)c1ccc2c(c1)CCN(C(=O)C(C)C)C2 [Example 24, (S)-N-ethyl-N-(1-(4-fluorophenyl)ethyl)-2-isobutyryl-1,2,3,4-tetrahydroisoquinoline-6-sulfonamide]
19 | 1450 nM | CCN([C@@H](C)c1ccccc1)S(=O)(=O)c1ccc2c(c1)CCN(C(=O)C(C)C)C2 [Example 25, (S)-N-ethyl-2-isobutyryl-N-(1-phenylethyl)-1,2,3,4-tetrahydroisoquinoline-6-sulfonamide]
20 | 4170 nM | CCN([C@H](C)c1ccccc1)S(=O)(=O)c1ccc2c(c1)CCN(C(=O)C(C)C)C2 [Example 26, (R)-N-ethyl-2-isobutyryl-N-(1-phenylethyl)-1,2,3,4-tetrahydroisoquinoline-6-sulfonamide]
21 | 3630 nM | CCN([C@H](C)c1ccccc1)S(=O)(=O)c1ccc2c(c1)CCN(C(=O)C1CC1)C2 [Example 27, (R)-2-(cyclopropanecarbonyl)-N-ethyl-N-(1-phenylethyl)-1,2,3,4-tetrahydroisoquinoline-6-sulfonamide]
22 | 3800 nM | CCN(C1(c2ccc(F)cc2)COC1)S(=O)(=O)c1ccc2c(c1)CN(C(=O)C(C)C)CC2 [Example 28, N-ethyl-N-(3-(4-fluorophenyl)oxetan-3-yl)-2-isobutyryl-1,2,3,4-tetrahydroisoquinoline-7-sulfonamide]
23 | 7080 nM | CC(C)C(=O)N1CCc2ccc(S(=O)(=O)N(C)C3(c4ccc(F)cc4)COC3)cc2C1 [Example 29, N-(3-(4-fluorophenyl)oxetan-3-yl)-2-isobutyryl-N-methyl-1,2,3,4-tetrahydroisoquinoline-7-sulfonamide]
24 | 6760 nM | CCN(C1(c2ccc(F)cc2)COC1)S(=O)(=O)c1ccc2c(c1)CCN(C(=O)C(C)C)C2 [Example 30, N-ethyl-N-(3-(4-fluorophenyl)oxetan-3-yl)-2-isobutyryl-1,2,3,4-tetrahydroisoquinoline-6-sulfonamide]
25 | 9120 nM | CC(C)C(=O)N1CCc2cc(S(=O)(=O)N(C)C3(c4ccc(F)cc4)COC3)ccc2C1 [Example 31, N-(3-(4-fluorophenyl)oxetan-3-yl)-2-isobutyryl-N-methyl-1,2,3,4-tetrahydroisoquinoline-6-sulfonamide]
